The values below come from article PMC9364673 (Bioorganic Chemistry, 2022).

The IC50 is the concentration that inhibits the measured activity by half.

The nature of assay [1]: Antioxidant activity, DPPH scavenging method. Particulars: read-out: IC50 (DPPH scavenging); DPPH 100 μM, 30 min, mean ± SD.
Assay [2] deals with DPP-4 enzyme (Homo sapiens, UniProt P27487). Description: biochemical.
Assay [3] relates to RAW264.7 cells. Description: MTT cell viability assay on RAW264.7 macrophages. In kind it is cell-based, murine. To be noted: Mus musculus, RAW264.7, 24 h, read-out: IC50 (RAW264.7 cells viability). For orientation: Tetrazolium assays rely on reduction of a dye to a coloured formazan, in cell work by metabolically active cells.
Assay [4] has as its system type 2 diabetic rats. Briefly: In vivo antidiabetic effect of a single dose on OGTT in type 2 diabetic. Set-up: species or system male Wistar albino rats. To be noted: oral doses equivalent to 10 mg/kg, NA: Not active.
For assay [5], the system named is normal rats. Description: In vivo screening of antihyperglycemic effect, oral tolerance test. The arrangement: species or system male Wistar albino rats. Particulars: OGTT, oral administration, NA: Not active.
The subject of assay [6] is IL-6. Description: ELISA of IL-6 release by LPS-stimulated RAW264.7 macrophages. In kind it is cell-based, murine. To be noted: LPS (1 μg/mL) stimulated RAW264.7, compound at ¼ IC50, ELISA, compared to LPS. (In general: An ELISA detects its analyte on a solid surface through an enzyme-linked reagent.)
Assay [7] deals with CRP. Description: ELISA of CRP release by LPS-stimulated RAW264.7 macrophages. To be noted: LPS (1 μg/mL) stimulated RAW264.7, compound at ¼ IC50, ELISA, compared to LPS. In kind it is cell-based, murine.

Like-named read-outs stand apart in the source and are kept apart here.

Chain of DPP-4 enzyme (P27487 whole entry): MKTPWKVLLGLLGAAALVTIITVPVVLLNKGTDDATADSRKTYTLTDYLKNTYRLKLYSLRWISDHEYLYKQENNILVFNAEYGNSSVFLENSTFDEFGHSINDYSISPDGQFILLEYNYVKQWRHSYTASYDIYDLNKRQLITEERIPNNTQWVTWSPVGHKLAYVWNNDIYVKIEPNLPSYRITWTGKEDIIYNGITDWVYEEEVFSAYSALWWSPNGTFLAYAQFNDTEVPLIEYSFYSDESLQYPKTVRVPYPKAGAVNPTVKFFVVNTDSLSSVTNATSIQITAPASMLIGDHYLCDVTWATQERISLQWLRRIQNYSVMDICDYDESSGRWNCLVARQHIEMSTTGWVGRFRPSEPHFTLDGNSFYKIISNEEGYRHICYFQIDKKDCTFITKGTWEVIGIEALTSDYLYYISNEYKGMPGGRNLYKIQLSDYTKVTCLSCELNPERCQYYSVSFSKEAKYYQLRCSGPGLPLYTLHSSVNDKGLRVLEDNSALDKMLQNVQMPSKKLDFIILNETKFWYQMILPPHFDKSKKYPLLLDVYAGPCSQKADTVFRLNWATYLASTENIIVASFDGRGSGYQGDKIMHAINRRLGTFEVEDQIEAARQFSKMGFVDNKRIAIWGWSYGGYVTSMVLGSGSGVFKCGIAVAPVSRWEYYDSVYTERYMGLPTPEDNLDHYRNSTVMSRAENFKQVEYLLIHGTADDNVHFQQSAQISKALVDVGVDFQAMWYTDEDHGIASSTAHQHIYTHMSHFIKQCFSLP

Regarding `Cc1ccc(NC(=S)NS(=O)(=O)C2=CNC3SC(=O)CN3C2=O)cc1` (stereo not shown) [Compound 4b, 3-(4-Methylphenyl)-1-[(2,5-dioxo-8,8a-dihydro-3H-thiazolo[3,2-a]pyrimidin-6-yl)sulfonyl]-thiourea], the IC50 in assay [1] is 65900 ± 3400 nM; in assay [2] it was 63 ± 3 nM; in assay [3] it was 241000 ± 69200 nM. For the same compound, the “% Reduction in BGL compared to control” value in assay [4] is listed as 36.59%.

`O=C(Nc1ccccc1)NS(=O)(=O)C1=CNC2SC(=O)CN2C1=O` (stereo not shown) [Compound 4c, 1-[(2,5-Dioxo-8,8a-dihydro-3H-thiazolo[3,2-a]pyrimidin-6-yl)sulfonyl]-3-phenyl-urea] displayed an IC50 in assay [2] of 418 ± 20 nM.

Compound `Cc1ccc(NC(=O)NS(=O)(=O)C2=CNC3SC(=O)CN3C2=O)cc1` (stereo not shown) [Compound 4d, 3-(4-Methylphenyl)-1-[(2,5-dioxo-8,8a-dihydro-3H-thiazolo[3,2-a]pyrimidin-6-yl)sulfonyl]-urea] returned an IC50 in assay [2] of 1320 ± 65 nM.

Consider `O=C(O)CSc1ncc(S(=O)(=O)NC(=S)Nc2ccccc2)c(=O)[nH]1` [Compound 5a, 2-[[6-Oxo-5-(phenylcarbamothioylsulfamoyl)-1H-pyrimidin-2-yl]sulfanyl]acetic acid], for which half-maximal inhibition in assay [2] (IC50) required 577 ± 28 nM.

`Cc1ccc(NC(=S)NS(=O)(=O)c2cnc(SCC(=O)O)[nH]c2=O)cc1` [Compound 5b, 2-[[5-(4-Methylphenylcarbamothioylsulfamoyl)-6-oxo-1H-pyrimidin-2-yl]sulfanyl]acetic acid] yielded an IC50 in assay [2] of 634 ± 31 nM. Moreover, the “% Reduction in BGL compared to control” value in assay [5] came to 15.89%.

For `O=C(O)CSc1ncc(S(=O)(=O)NC(=O)Nc2ccccc2)c(=O)[nH]1` [Compound 5c, 2-[[6-Oxo-5-(phenylcarbamoylsulfamoyl)-1H-pyrimidin-2-yl]sulfanyl]acetic acid], the IC50 in assay [2] was found to be 290 ± 18 nM.

As for `NNc1ncc(S(=O)(=O)NC(=S)Nc2ccccc2)c(=O)[nH]1` [Compound 6a, 1-[(2-Hydrazino-6-oxo-1H-pyrimidin-5-yl)sulfonyl]-3-phenyl-thiourea], the IC50 in assay [1] was found to be 139000 ± 7100 nM; in assay [2] it was 47 ± 2 nM; in assay [3], 175000 ± 24700 nM. The “decrease in IL-6 levels” value in assay [6] was “about 85.9%”. In addition, in assay [7], the “reduction of the release of CRP” value is “about 75.5%”. For the same compound, the “% Reduction in BGL compared to control” value is recorded as 17.70% in assay [5] and 23.24% in assay [4].

With `Cc1ccc(NC(=S)NS(=O)(=O)c2cnc(NN)[nH]c2=O)cc1` [Compound 6b, 1-[(2-Hydrazino-6-oxo-1H-pyrimidin-5-yl)sulfonyl]-3-(4-methylphenyl)-thiourea], the IC50 in assay [1] came to 123000 ± 6300 nM; in assay [2], 71 ± 4 nM; in assay [3] it was 189000 ± 26000 nM. Besides, in assay [4], the “% Reduction in BGL compared to control” value stood at 41.00%.

In assay [2], `NNc1ncc(S(=O)(=O)NC(=O)Nc2ccccc2)c(=O)[nH]1` [Compound 6c, 1-[(2-Hydrazino-6-oxo-1H-pyrimidin-5-yl)sulfonyl]-3-phenyl-urea] returned an IC50 of 264 ± 13 nM. In assay [5], the “% Reduction in BGL compared to control” value turned out to be 17.36%.

Consider `O=c1c(S(=O)(=O)NC(=S)Nc2ccccc2)cnc2[nH]ncn12` [Compound 7a, 1-[(5-oxo-1H-[1], [2], [4]triazolo[4,3-a]pyrimidin-6-yl)sulfonyl]-3-phenyl-thiourea], for which, in assay [2] (read-out: DPP-4 IC50, in vitro, 0.01 to 10 µM, mean ± SD), the IC50 is 153 ± 8 nM. Further, the “% Reduction in BGL compared to control” value in assay [5] came to 17.55%.

For `O=c1[nH]c(N/N=C/c2ccccc2)ncc1S(=O)(=O)NC(=S)Nc1ccccc1` [Compound 8a, 1-[[2-[(2E)-2-benzylidenehydrazino]-6-oxo-1H-pyrimidin-5-yl]sulfonyl]-3-phenyl-thiourea], the IC50 in assay [2] worked out at 104 ± 5 nM. For the same compound, the “% Reduction in BGL compared to control” value in assay [5] amounted to 16.88%.

Regarding `Cc1ccc(NC(=S)NS(=O)(=O)c2cnc(N/N=C/c3ccccc3)[nH]c2=O)cc1` [Compound 8b, 1-[[2-[(2E)-2-benzylidenehydrazino]-6-oxo-1H-pyrimidin-5-yl]sulfonyl]-3-(4-methylphenyl)-thiourea], the IC50 in assay [1] turned out to be 60800 ± 3100 nM; in assay [2] it was 75 ± 3 nM; in assay [3], 155000 ± 24200 nM. In addition, in assay [6], the “decrease in IL-6 levels” value was approximately 80.2%. Moreover, in assay [7], the “reduction of the release of CRP” value is approximately 82.6%. The “% Reduction in BGL compared to control” value in assay [4] is reported as 23.94%.

Consider `O=C(Nc1ccccc1)NS(=O)(=O)c1cnc(N/N=C/c2ccccc2)[nH]c1=O` [Compound 8c, 1-[[2-[(2E)-2-benzylidenehydrazino]-6-oxo-1H-pyrimidin-5-yl]sulfonyl]-3-phenyl-urea], for which half-maximal inhibition in assay [2] (IC50) was put at 468 ± 23 nM.

On to `Cc1ccc(S(=O)(=O)NC(=O)NN2CC3CCCC3C2)cc1` (stereo not shown) [Diamicron, reference compound], for which the “% Reduction in BGL compared to control” value in assay [5] is listed as 15.86%.

Consider `CC#CCn1c(N2CCC[C@@H](N)C2)nc2c1c(=O)n(Cc1nc(C)c3ccccc3n1)c(=O)n2C` [Linagliptin, linagliptin, reference compound], for which the “% Reduction in BGL compared to control” value in assay [4] is reported as 36.42%.

Consider `Cc1c(C)c2c(c(C)c1O)CCC(C)(C(=O)O)O2` (stereo not shown) [Trolox, reference compound], for which the IC50 in assay [1] was determined as 55200 ± 2800 nM.
